Patent US20260207589A1, “Combination of Talazoparib and Enzalutamide in the Treatment of Metastatic Castration-Resistant Prostate Cancer” (Pfizer Inc., priority 2022, published 2026)

Experiments:
[1] = system: patients with mCRPC with HRR gene alterations; conditions: male, human, in vivo
[2] = system: patients with mCRPC with HRR gene alterations; test: TALAPRO-2 (NCT03395197) Phase 3, Part 2, DDR/HRR-deficient cohort (Cohort 2): efficacy; assay type: in vivo, human
Description: In one embodiment, the increase in survival is measured by any of the following: progression free survival (PFS), radiographic PFS (rPFS), and overall survival (OS). PFS, rPFS and OS are clinically meaningful endpoints for measuring an increase in survival for patients treated with the combination of the present invention. […] OS is the length of time from either the date of diagnosis or the start of treatment for a disease, such as cancer, that patients diagnosed with the disease are still alive. In a clinical trial, measuring the PFS and OS are ways to see how well a new treatment works. For purposes of the clinical trial described here, rPFS refers to the time from the date of randomization to first objective evidence of radiographic progression assessed in soft tissue per Response Evaluation Criteria in Solid Tumors version 1.1 (RECIST 1.1) or in bone (upon subsequent confirmation) per Prostate Cancer Working Group (PCWG3) guidelines by Blinded Independent Central Review (BICR), or death, whichever occurs first. For purposes of the clinical trial described here, OS refers to the time from the date of randomization to death due to any cause.
This was an international, Phase 3, randomized, double-blind, two-part study for mCRPC patients, TALAPRO-2 (NCT03395197).
Part 2 was randomized, double-blind, and placebo-controlled and evaluated the efficacy and safety of talazoparib in combination with enzalutamide compared with placebo in combination with enzalutamide. From February 2019 to January 2022, 399 patients (169 from Cohort 1) were randomized 1:1 to receive either talazoparib or matching placebo in combination with open-label enzalutamide once daily. Randomization was stratified by prior novel hormonal therapy or taxane-based chemotherapy, e.g., abiraterone, orteronel, or docetaxel for castration-sensitive prostate cancer (yes/no) and DDR mutational status, also referred to as, homologous recombination repair gene alteration status (deficient vs. non deficient/unknown). Stratification factors were specified by the investigator, and recorded in the interactive web response system (IWRS) before randomization and used for the stratified analysis of the primary efficacy endpoint. However, as the IWRS grouped non-deficient and unknown status, a secondary stratified analysis based on homologous recombination repair gene alteration status derived from the clinical database was also performed and used to identify the non-deficient subpopulation.
Genomic screening to identify alterations in DDR genes was optional for patients in Part 1, but it was required for randomization in Part 2. Mutational status was determined by testing for the presence of mutations in defined DDR genes likely to sensitize to PARP inhibition using next generation sequencing (NGS) based gene panel test. Prior to randomization, patients consented to provide solid tumor tissue (de novo or archival) and/or blood-based samples, which were prospectively assessed for homologous recombination repair (HRR) gene alterations (BRCA1, BRCA2, PALB2, ATM, ATR, CHEK2, FANCA, RAD51C, NBN, MLH1, MRE11A, CDK12) using FoundationOne® CDx and/or FoundationOneLiquid® CDx. […] One patient was enrolled based on ctDNA results only. For exploratory analysis, available blood-based samples (not collected in China) were retrospectively tested using FoundationOneLiquid® CDx to determine the status of patients with a prospectively-assessed status of unknown.

[3] = BICR, measurable soft tissue disease
[4] = DDR-deficient population, overall
[5] = Non-BRCAm HRRm incl. 4 patients without HRR gene mutations (N = 129 vs 115)

Compound: CNC(=O)c1ccc(N2C(=S)N(c3ccc(C#N)c(C(F)(F)F)c3)C(=O)C2(C)C)cc1F [Placebo + Enzalutamide]
- Patients with Grade 3 or higher TRAEs [1]: 28 (14) n (%)
- Patients with any TRAEs [1]: 144 (72.4) n (%)
- CR rate [2, 3]: 18.5%
- PD rate [2, 3]: 20.0%
- PR rate [2, 3]: 21.5%
- rPFS events by BICR ([2]; BRCA1/2 mutations subgroup): 54 events
- rPFS, Number of events ([2]; BRCAm (N = 71 vs 84)): 54 (64) n (%)
- Median PFS2 ([2]; DDR-deficient population): 28.1 months
- Median investigator-assessed rPFS ([2]; DDR-deficient population): 16.9 months
- Median time to use of cytotoxic chemotherapy ([2]; DDR-deficient population): NE/NR
- PFS2 events ([2]; DDR-deficient population): 61 events
- PSA response rate (decline from baseline PSA by at least 50%, confirmed) ([2]; DDR-deficient population): 63.1%
- Time to cytotoxic chemotherapy, events ([2]; DDR-deficient population): 65 events
- Median rPFS by BICR [2, 4]: 13.8 months
- rPFS events by BICR [2, 4]: 104 events
- Median OS ([2]; DDR-deficient population, interim): 33.7 months
- rPFS, Median months (95% CI) [2, 5]: 16.7 (13.8, 27.7) months
- rPFS, Number of events [2, 5]: 50 (43) n (%)
- rPFS by BICR, Median ([2]; gene subgroup: ATM Cluster): 27.7 mo
- rPFS by BICR, Median ([2]; gene subgroup: All HRR-deficient): 13.8 mo
- rPFS by BICR, Median ([2]; gene subgroup: BRCA Cluster): 11.0 mo
- rPFS by BICR, Median ([2]; gene subgroup: CDK12 Cluster): 13.8 mo
- rPFS by BICR, Median ([2]; gene subgroup: Only ATM): 27.7 mo
- rPFS by BICR, Median ([2]; gene subgroup: Only BRCA1): 11.7 mo
- rPFS by BICR, Median ([2]; gene subgroup: Only BRCA2): 11.0 mo
- rPFS by BICR, Median ([2]; gene subgroup: Only CDK12): 13.8 mo
- rPFS by BICR, Median ([2]; gene subgroup: Only PALB2): 8.6 mo
- rPFS by BICR, Median ([2]; gene subgroup: PALB2 Cluster): 8.3 mo
- patients who had died ([2]; interim OS analysis, 24% maturity overall): 26.6%
- OS events (deaths) ([2]; interim OS analysis, 96 deaths): 53 events
- Median OS (printed: Median rPFS) ([2]; non-BRCA1/2 mutations subgroup): 33.7 months
- rPFS events by BICR ([2]; non-BRCA1/2 mutations subgroup): 50 events
- Median rPFS by BICR ([2]; non-BRCA1/2 mutations subgroup, N=240): 16.7 months
- Objective response rate by BICR (RECIST 1.1) ([2]; patients with measurable soft tissue disease at baseline): 40.0%
